Literature values, collected in patent US10245278B2 (priority 2013, dated 2019).
Read-outs that look alike come from different tables or passages of the source.

Tests used:
[1] = angina pectoris or congestive heart failure; oral, at least 6 grams per day for 6 weeks
[2] = intermittent claudication; oral 8 grams twice per day for 3 weeks
[3] = slightly hypertensive persons; oral 12 grams per day in three administrations for 4 weeks
[4] = menopausal women; oral 14 grams per day for 6 months
[5] = even at doses of 9 or 10 grams twice per day
[6] = heart transplant patients; 6 grams per day for several weeks
[7] = male subjects; 8 grams in a single administration one or two hours before relations

Row | Compound | ability to withstand physical effort [1] | walking range [2] | arterial pressure [3] | muscular force [4] | side effects [5] | ability to withstand physical effort [6] | moderate sexual dysfunction [7]
1 | N=C(N)NCCC[C@H](N)C(=O)O [arginine, L-arginine] | improves the ability to withstand physical effort | enabled their walking range to be increased | reduced the arterial pressure significantly | resulted in increasing muscular force | very few side effects | – | –
2 | L-arginine aspartate | – | – | – | – | – | same result | significantly improved their disorder
